From the NIST ThermoML archive (doi:10.1016/j.jct.2012.03.003)
± gives the expanded uncertainty stated by the source.

Experiment: xn = mol fraction of the nth substance listed
Details: Liquid, Vibrating tube method

COc1cc2c(cc1O)CC1c3c(cc(O)c(OC)c3-2)CCN1C (stereo not given) [boldine] + CCCO
Details	mass density [kg/m3]
352.94 K, 17000 kPa, x1 = 0.0142	793.21 ± 0.69
352.94 K, 18000 kPa, x1 = 0.0018	773.13 ± 0.95
352.94 K, 18000 kPa, x1 = 0.0112	789.5 ± 0.76
352.94 K, 18000 kPa, x1 = 0.0142	794.1 ± 0.69
352.94 K, 19000 kPa, x1 = 0.0018	774.01 ± 0.96
352.94 K, 19000 kPa, x1 = 0.0112	790.38 ± 0.76
352.94 K, 19000 kPa, x1 = 0.0142	794.97 ± 0.69
352.94 K, 20000 kPa, x1 = 0.0018	774.9 ± 0.96
352.94 K, 20000 kPa, x1 = 0.0112	791.19 ± 0.77
352.94 K, 20000 kPa, x1 = 0.0142	795.82 ± 0.7
352.95 K, 1000 kPa, x1 = 0.0046	762.42 ± 0.71
352.95 K, 1000 kPa, x1 = 0.0077	766.39 ± 0.67
352.95 K, 2000 kPa, x1 = 0.0046	763.47 ± 0.71
352.95 K, 2000 kPa, x1 = 0.0077	767.42 ± 0.67
352.95 K, 3000 kPa, x1 = 0.0046	764.53 ± 0.71
352.95 K, 3000 kPa, x1 = 0.0077	768.43 ± 0.68
352.95 K, 4000 kPa, x1 = 0.0046	765.57 ± 0.71
352.95 K, 4000 kPa, x1 = 0.0077	769.48 ± 0.67
352.95 K, 5000 kPa, x1 = 0.0046	766.6 ± 0.72
352.95 K, 5000 kPa, x1 = 0.0077	770.53 ± 0.68
352.95 K, 6000 kPa, x1 = 0.0046	767.63 ± 0.72
352.95 K, 6000 kPa, x1 = 0.0077	771.55 ± 0.68
352.95 K, 7000 kPa, x1 = 0.0046	768.64 ± 0.72
352.95 K, 7000 kPa, x1 = 0.0077	772.55 ± 0.68
352.95 K, 8000 kPa, x1 = 0.0046	769.68 ± 0.72
352.95 K, 8000 kPa, x1 = 0.0077	773.58 ± 0.68
352.95 K, 9000 kPa, x1 = 0.0046	770.67 ± 0.73
352.95 K, 9000 kPa, x1 = 0.0077	774.57 ± 0.69
352.95 K, 10000 kPa, x1 = 0.0046	771.67 ± 0.73
352.95 K, 10000 kPa, x1 = 0.0077	775.56 ± 0.69
352.95 K, 11000 kPa, x1 = 0.0046	772.65 ± 0.73
352.95 K, 11000 kPa, x1 = 0.0077	776.53 ± 0.69
352.95 K, 12000 kPa, x1 = 0.0046	773.64 ± 0.73
352.95 K, 12000 kPa, x1 = 0.0077	777.51 ± 0.7
352.95 K, 13000 kPa, x1 = 0.0046	774.6 ± 0.74
352.95 K, 13000 kPa, x1 = 0.0077	778.48 ± 0.7
352.95 K, 14000 kPa, x1 = 0.0046	775.56 ± 0.74
352.95 K, 14000 kPa, x1 = 0.0077	779.42 ± 0.7
352.95 K, 15000 kPa, x1 = 0.0046	776.52 ± 0.74
352.95 K, 15000 kPa, x1 = 0.0077	780.35 ± 0.71
352.95 K, 16000 kPa, x1 = 0.0046	777.42 ± 0.75
352.95 K, 16000 kPa, x1 = 0.0077	781.26 ± 0.71
352.95 K, 17000 kPa, x1 = 0.0046	778.33 ± 0.75
352.95 K, 17000 kPa, x1 = 0.0077	782.19 ± 0.71
352.95 K, 18000 kPa, x1 = 0.0046	779.23 ± 0.76
352.95 K, 18000 kPa, x1 = 0.0077	783.07 ± 0.72
352.95 K, 19000 kPa, x1 = 0.0046	780.13 ± 0.76
352.95 K, 19000 kPa, x1 = 0.0077	783.97 ± 0.72
352.95 K, 20000 kPa, x1 = 0.0046	780.98 ± 0.77
352.95 K, 20000 kPa, x1 = 0.0077	784.83 ± 0.72
362.91 K, 1000 kPa, x1 = 0.0142	768.06 ± 0.63
362.91 K, 2000 kPa, x1 = 0.0142	769.19 ± 0.63
362.91 K, 3000 kPa, x1 = 0.0142	770.27 ± 0.64
362.91 K, 4000 kPa, x1 = 0.0142	771.41 ± 0.64
362.91 K, 5000 kPa, x1 = 0.0142	772.43 ± 0.64
362.91 K, 6000 kPa, x1 = 0.0142	773.54 ± 0.64
362.91 K, 7000 kPa, x1 = 0.0142	774.62 ± 0.65
362.91 K, 8000 kPa, x1 = 0.0142	775.73 ± 0.65
362.91 K, 9000 kPa, x1 = 0.0142	776.73 ± 0.63
362.91 K, 10000 kPa, x1 = 0.0142	777.77 ± 0.66
362.91 K, 11000 kPa, x1 = 0.0142	778.78 ± 0.66
362.91 K, 12000 kPa, x1 = 0.0142	779.82 ± 0.67
362.91 K, 13000 kPa, x1 = 0.0142	780.81 ± 0.67
362.91 K, 14000 kPa, x1 = 0.0142	781.79 ± 0.67
362.91 K, 15000 kPa, x1 = 0.0142	782.77 ± 0.68
362.91 K, 16000 kPa, x1 = 0.0142	783.72 ± 0.68
362.91 K, 17000 kPa, x1 = 0.0142	784.68 ± 0.69
362.91 K, 18000 kPa, x1 = 0.0142	785.6 ± 0.69
362.91 K, 19000 kPa, x1 = 0.0142	786.52 ± 0.69
362.91 K, 20000 kPa, x1 = 0.0142	787.4 ± 0.7
362.92 K, 1000 kPa, x1 = 0.0046	752.84 ± 0.71
362.92 K, 1000 kPa, x1 = 0.0077	756.81 ± 0.67
362.92 K, 2000 kPa, x1 = 0.0046	753.97 ± 0.71
362.92 K, 2000 kPa, x1 = 0.0077	757.93 ± 0.68
362.92 K, 3000 kPa, x1 = 0.0046	755.11 ± 0.71
362.92 K, 3000 kPa, x1 = 0.0077	759.06 ± 0.68
362.92 K, 4000 kPa, x1 = 0.0046	756.24 ± 0.71
362.92 K, 4000 kPa, x1 = 0.0077	760.16 ± 0.68
362.92 K, 5000 kPa, x1 = 0.0046	757.34 ± 0.72
362.92 K, 5000 kPa, x1 = 0.0077	761.28 ± 0.68
362.92 K, 6000 kPa, x1 = 0.0046	758.46 ± 0.72
362.92 K, 6000 kPa, x1 = 0.0077	762.37 ± 0.69
362.92 K, 7000 kPa, x1 = 0.0046	759.55 ± 0.72
362.92 K, 7000 kPa, x1 = 0.0077	763.46 ± 0.69
362.92 K, 8000 kPa, x1 = 0.0046	760.63 ± 0.72
362.92 K, 8000 kPa, x1 = 0.0077	764.54 ± 0.69
362.92 K, 9000 kPa, x1 = 0.0046	761.7 ± 0.73
362.92 K, 9000 kPa, x1 = 0.0077	765.61 ± 0.71
362.92 K, 10000 kPa, x1 = 0.0046	762.78 ± 0.73
362.92 K, 10000 kPa, x1 = 0.0077	766.65 ± 0.7
362.92 K, 11000 kPa, x1 = 0.0046	763.79 ± 0.73
362.92 K, 11000 kPa, x1 = 0.0077	767.68 ± 0.7
362.92 K, 12000 kPa, x1 = 0.0046	764.85 ± 0.74
362.92 K, 12000 kPa, x1 = 0.0077	768.72 ± 0.7
362.92 K, 13000 kPa, x1 = 0.0046	765.87 ± 0.74
362.92 K, 13000 kPa, x1 = 0.0077	769.74 ± 0.71
362.92 K, 14000 kPa, x1 = 0.0046	766.88 ± 0.74
362.92 K, 14000 kPa, x1 = 0.0077	770.74 ± 0.71
362.92 K, 15000 kPa, x1 = 0.0046	767.86 ± 0.75
362.92 K, 15000 kPa, x1 = 0.0077	771.74 ± 0.72
362.92 K, 16000 kPa, x1 = 0.0046	768.85 ± 0.75
362.92 K, 16000 kPa, x1 = 0.0077	772.72 ± 0.72
362.92 K, 17000 kPa, x1 = 0.0046	769.81 ± 0.75
362.92 K, 17000 kPa, x1 = 0.0077	773.68 ± 0.72
362.92 K, 18000 kPa, x1 = 0.0046	770.76 ± 0.76
362.92 K, 18000 kPa, x1 = 0.0077	774.6 ± 0.73
362.92 K, 19000 kPa, x1 = 0.0046	771.7 ± 0.76
362.92 K, 19000 kPa, x1 = 0.0077	775.55 ± 0.73
362.92 K, 20000 kPa, x1 = 0.0046	772.56 ± 0.77
362.92 K, 20000 kPa, x1 = 0.0077	776.45 ± 0.74
362.93 K, 1000 kPa, x1 = 0.0112	763.51 ± 0.72
362.93 K, 2000 kPa, x1 = 0.0112	764.63 ± 0.72
362.93 K, 3000 kPa, x1 = 0.0112	765.74 ± 0.72
362.93 K, 4000 kPa, x1 = 0.0112	766.83 ± 0.73
362.93 K, 5000 kPa, x1 = 0.0112	767.93 ± 0.72
362.93 K, 6000 kPa, x1 = 0.0112	769 ± 0.73
362.93 K, 7000 kPa, x1 = 0.0112	770.08 ± 0.73
362.93 K, 8000 kPa, x1 = 0.0112	771.14 ± 0.74
362.93 K, 9000 kPa, x1 = 0.0112	772.39 ± 0.74
362.93 K, 10000 kPa, x1 = 0.0112	773.24 ± 0.74
362.93 K, 11000 kPa, x1 = 0.0112	774.29 ± 0.74
362.93 K, 12000 kPa, x1 = 0.0112	775.28 ± 0.75
362.93 K, 13000 kPa, x1 = 0.0112	776.29 ± 0.75
362.93 K, 14000 kPa, x1 = 0.0112	777.28 ± 0.75
362.93 K, 15000 kPa, x1 = 0.0112	778.25 ± 0.75
362.93 K, 16000 kPa, x1 = 0.0112	779.21 ± 0.76
362.93 K, 17000 kPa, x1 = 0.0112	780.16 ± 0.76
362.93 K, 18000 kPa, x1 = 0.0112	781.11 ± 0.76
362.93 K, 19000 kPa, x1 = 0.0112	782.03 ± 0.77
362.93 K, 20000 kPa, x1 = 0.0112	782.93 ± 0.77
362.94 K, 1000 kPa, x1 = 0.0018	746.61 ± 0.91
362.94 K, 2000 kPa, x1 = 0.0018	747.75 ± 0.91
362.94 K, 3000 kPa, x1 = 0.0018	748.91 ± 0.91
362.94 K, 4000 kPa, x1 = 0.0018	750.05 ± 0.91
362.94 K, 5000 kPa, x1 = 0.0018	751.17 ± 0.91
362.94 K, 6000 kPa, x1 = 0.0018	752.28 ± 0.91
362.94 K, 7000 kPa, x1 = 0.0018	753.38 ± 0.91
362.94 K, 8000 kPa, x1 = 0.0018	754.49 ± 0.92
362.94 K, 9000 kPa, x1 = 0.0018	755.54 ± 0.92
362.94 K, 10000 kPa, x1 = 0.0018	756.62 ± 0.92
362.94 K, 11000 kPa, x1 = 0.0018	757.69 ± 0.92
362.94 K, 12000 kPa, x1 = 0.0018	758.72 ± 0.93
362.94 K, 13000 kPa, x1 = 0.0018	759.77 ± 0.93
362.94 K, 14000 kPa, x1 = 0.0018	760.8 ± 0.93
362.94 K, 15000 kPa, x1 = 0.0018	761.77 ± 0.93
362.94 K, 16000 kPa, x1 = 0.0018	762.79 ± 0.93
362.94 K, 17000 kPa, x1 = 0.0018	763.76 ± 0.94
362.94 K, 18000 kPa, x1 = 0.0018	764.68 ± 0.94
362.94 K, 19000 kPa, x1 = 0.0018	765.63 ± 0.95
362.94 K, 20000 kPa, x1 = 0.0018	766.58 ± 0.94
